Test results reported in publication PMC5111741 (The European Journal of Neuroscience, 2016).

Biological target: T1, rat prestin labelled with GFP (Rattus norvegicus, UniProt Q9EPH0)
T1 sequence (Q9EPH0 1-744): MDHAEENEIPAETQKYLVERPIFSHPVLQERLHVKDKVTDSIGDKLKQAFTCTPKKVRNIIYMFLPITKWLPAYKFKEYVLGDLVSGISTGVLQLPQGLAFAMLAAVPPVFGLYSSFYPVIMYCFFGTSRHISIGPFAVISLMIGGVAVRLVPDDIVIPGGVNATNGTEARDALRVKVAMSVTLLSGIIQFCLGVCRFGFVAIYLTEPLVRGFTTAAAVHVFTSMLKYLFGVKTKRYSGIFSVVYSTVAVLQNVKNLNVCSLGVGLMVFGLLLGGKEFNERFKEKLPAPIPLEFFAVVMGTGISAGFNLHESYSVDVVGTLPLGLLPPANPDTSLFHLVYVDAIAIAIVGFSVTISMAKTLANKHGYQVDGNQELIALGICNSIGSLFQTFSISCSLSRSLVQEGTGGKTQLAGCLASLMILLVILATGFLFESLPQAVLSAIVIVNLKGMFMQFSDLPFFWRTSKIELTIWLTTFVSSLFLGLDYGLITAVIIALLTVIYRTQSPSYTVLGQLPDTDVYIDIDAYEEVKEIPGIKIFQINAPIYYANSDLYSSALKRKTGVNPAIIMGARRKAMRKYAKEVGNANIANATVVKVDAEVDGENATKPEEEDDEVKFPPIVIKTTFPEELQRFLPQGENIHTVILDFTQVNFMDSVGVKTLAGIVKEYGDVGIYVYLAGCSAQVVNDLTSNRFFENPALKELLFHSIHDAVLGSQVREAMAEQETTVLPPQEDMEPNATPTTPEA
Assay: whole-cell patch clamp of transfected HEK […] cells, nonlinear capacitance
Assay type: cell-based
Details: 500 μM extracellular 9-AC; intracellular 135 mM CsCl; pH 7.2; 21.5 °C

O=C(O)c1c2ccccc2cc2ccccc12 [9‐anthracenecarboxylic acid]
Q max reduction at 500 μM: 59 ± 19%
